Experimental data taken from ChEMBL document CHEMBL1201862, “PubChem BioAssay data set” (2004).
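Interpolation was linear, between the two tested concentrations surrounding the appropriate level; five concentrations were tested over 48 hours in 96-well plates. GI50: concentration for 50% inhibition of growth.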 Calls of active or inactive are those of the source. Rule as the data show it: active = GI50 up to about 1.1 µM and inactive = higher. Residues, ends and D or L forms follow the SMILES beside them. *: point of attachment. Boc = CC(C)(C)OC(=O)*; OBn = c1ccc(CO*)cc1

Key:
Assay in all cases: NCI anticancer screen, dose series, 48 h
BT-549 = system: BT-549
A498 = system: A498
UO-31 = system: UO-31
HOP-62 = system: HOP-62
Hs-578T = system: Hs-578T
LOX IMVI = system: LOX IMVI
NCI-H23 = system: NCI-H23
SF-295 = system: SF-295
UACC-257 = system: UACC-257
SNB-75 = system: SNB-75
HCT-15 = system: HCT-15
IGROV-1 = system: IGROV-1
NCI-H522 = system: NCI-H522
TK-10 = system: TK-10
SF-268 = system: SF-268
SF-539 = system: SF-539
OVCAR-8 = system: OVCAR-8
Malme-3M = system: Malme-3M
SR = system: SR
DLD-1 = system: DLD-1

SMILES | GI50 (BT-549) | GI50 (A498) | GI50 (UO-31) | GI50 (HOP-62) | GI50 (Hs-578T) | GI50 (LOX IMVI) | GI50 (NCI-H23) | GI50 (SF-295) | GI50 (UACC-257) | GI50 (SNB-75) | GI50 (HCT-15) | GI50 (IGROV-1) | GI50 (NCI-H522) | GI50 (TK-10) | GI50 (SF-268) | GI50 (SF-539) | GI50 (OVCAR-8) | GI50 (Malme-3M) | GI50 (SR) | GI50 (DLD-1)
N#[N+]c1cc2c(cc1Br)-c1ccccc1C2 | 70 µM (inactive) | > 100 µM (inactive) | > 100 µM (inactive) | > 100 µM (inactive) | > 100 µM (inactive) | 91.6 µM (inactive) | > 100 µM (inactive) | > 100 µM (inactive) | 23.5 µM (inactive) | > 100 µM (inactive) | > 100 µM | 38.8 µM (inactive) | 58.2 µM (inactive) | 47.1 µM (inactive) | > 100 µM (inactive) | > 100 µM (inactive) | 15.6 µM (inactive) | 40 µM (inactive) | 0.413 µM (active) | 
CC1=C2CC(C)(C)/C=C\C(=O)/C(C)=C\C3=C[C@H](C)C[C@]3(O2)C1=O | 0.518 µM (active) | 4.67 µM (inactive) | 1.18 µM (inactive) | 6.43 µM (inactive) | 2.26 µM (inactive) | 0.741 µM (active) | 1.08 µM (active) | 8.87 µM (inactive) | 1.14 µM (inactive) | 4.1 µM (inactive) | 0.627 µM | 1.56 µM (inactive) | 0.201 µM (active) | 2.03 µM (inactive) | 6.78 µM (inactive) | 0.946 µM (active) | 0.9 µM (active) | 0.897 µM (active) | 0.243 µM (active) | 
CCC(O)(Cc1ccc(OC)cc1)c1ccc(OC)cc1 (stereo not given) | > 100 µM (inactive) | > 100 µM (inactive) | > 100 µM (inactive) | > 100 µM (inactive) | > 100 µM (inactive) | > 100 µM (inactive) | > 100 µM (inactive) | > 100 µM (inactive) | > 100 µM (inactive) | > 100 µM (inactive) | > 100 µM | > 100 µM (inactive) | > 100 µM (inactive) | > 100 µM (inactive) | > 100 µM (inactive) | > 100 µM (inactive) | > 100 µM (inactive) | > 100 µM (inactive) | 0.0641 µM (active) | 
CCOC(CBr)OC1C(=O)OCC1(C)C (stereo not given) | > 100 µM (inactive) | > 100 µM (inactive) | > 100 µM (inactive) | > 100 µM (inactive) | > 100 µM (inactive) | > 100 µM (inactive) | > 100 µM (inactive) | > 100 µM (inactive) | > 100 µM (inactive) | > 100 µM (inactive) | > 100 µM | > 100 µM (inactive) | > 100 µM (inactive) | > 100 µM (inactive) | > 100 µM (inactive) |  | > 100 µM (inactive) | > 100 µM (inactive) | > 100 µM (inactive) | 
CC(C)CC(NC(=O)OC(C)(C)C)C(=O)NC(CC(=O)OCc1ccccc1)C(=O)OCc1ccccc1 (stereo not drawn) (Boc-Leu-Asp(OBn)-OBn; configuration not given here) | 81.5 µM (inactive) | > 100 µM (inactive) | 27 µM (inactive) | > 100 µM (inactive) | > 100 µM (inactive) | 22.8 µM (inactive) | 32.4 µM (inactive) | 43.7 µM (inactive) | 32.9 µM (inactive) | 87.9 µM (inactive) |  | > 10 µM (inactive) | 27.9 µM (inactive) | 21.3 µM (inactive) | 41.8 µM (inactive) | 31 µM (inactive) | > 100 µM (inactive) | 51.5 µM (inactive) | 25.8 µM (inactive) | 
CCc1c[n+]2c(cc1C1=CN3c4ccccc4[C@]45CCN6C/C(=C/CO)[C@H](C[C@H]64)[C@@H]([C@@H]1O)[C@H]35)-c1[nH]c3ccccc3c1CC2 | > 50 µM (inactive) | > 50 µM (inactive) | > 50 µM (inactive) | > 50 µM (inactive) | > 50 µM (inactive) | > 50 µM (inactive) | > 50 µM (inactive) | > 50 µM (inactive) | > 50 µM (inactive) | > 50 µM (inactive) | > 50 µM | > 50 µM (inactive) | > 50 µM (inactive) | > 50 µM (inactive) | > 50 µM (inactive) | > 50 µM (inactive) | > 50 µM (inactive) | > 50 µM (inactive) | > 50 µM (inactive) | 
O=C(O)CCc1ccc(-c2ccccc2)[nH]1 | > 100 µM (inactive) | > 100 µM (inactive) | > 100 µM (inactive) | > 100 µM (inactive) | > 100 µM (inactive) | > 100 µM (inactive) | > 100 µM (inactive) | > 100 µM (inactive) | > 100 µM (inactive) | > 100 µM (inactive) | > 100 µM | > 100 µM (inactive) | > 100 µM (inactive) | > 100 µM (inactive) | > 100 µM (inactive) | > 100 µM (inactive) | > 100 µM (inactive) | > 100 µM (inactive) | > 100 µM (inactive) | 
CC[P+](C#Cc1ccccc1)(c1ccccc1)c1ccccc1 | 1.31 µM (inactive) | 8.17 µM (inactive) | 6.93 µM (inactive) | 2.44 µM (inactive) | 2.86 µM (inactive) | 1.82 µM (inactive) | 2.17 µM (inactive) | 7.03 µM (inactive) | 1.21 µM (inactive) | 1.78 µM (inactive) | 3.19 µM | 3.1 µM (inactive) | 1.36 µM (inactive) | 1.58 µM (inactive) | 3.03 µM (inactive) | 1.79 µM (inactive) | 1.76 µM (inactive) | 1.59 µM (inactive) | 2.33 µM (inactive) | 
CNc1nc2n(CCO)c(-c3ccccc3)c(-c3ccccc3)nc-2c(=O)n1 | > 50 µM (inactive) | > 50 µM (inactive) | > 50 µM (inactive) | 22.8 µM (inactive) | > 50 µM (inactive) | > 50 µM (inactive) | > 50 µM (inactive) | > 50 µM (inactive) | > 50 µM (inactive) | > 50 µM (inactive) | > 50 µM | > 50 µM (inactive) | > 50 µM (inactive) | > 50 µM (inactive) | > 50 µM (inactive) | > 50 µM (inactive) | > 50 µM (inactive) | > 50 µM (inactive) | > 50 µM (inactive) | 
COC(=O)c1cc2c3c(ccc2[nH]1)N(C(=O)c1cc2cc(OC)c(OC)c(OC)c2[nH]1)CC3CCl (stereo not given) | 3.51 µM (inactive) | 42.5 µM (inactive) | 7.59 µM (inactive) | > 21.8 µM (inactive) | 8.45 µM (inactive) | 4.98 µM (inactive) | 5.56 µM (inactive) | 7.78 µM (inactive) | 81.5 µM (inactive) | > 100 µM (inactive) | 5.71 µM | 7.87 µM (inactive) | 2.9 µM (inactive) | > 54.2 µM (inactive) | > 100 µM (inactive) | > 34.8 µM (inactive) | 12.6 µM (inactive) | 8.59 µM (inactive) | 1.1 µM (active) | 
CC(C)C(Nc1c2ccccc2[n+]([O-])c2ccccc12)C(=O)O (stereo not given) |  | > 100 µM (inactive) | 55.5 µM (inactive) | > 100 µM (inactive) |  | 50.9 µM (inactive) | 36 µM (inactive) | > 100 µM (inactive) | 66.2 µM (inactive) | 58.9 µM (inactive) | 45.9 µM | > 100 µM (inactive) | 81.3 µM (inactive) | > 100 µM (inactive) | 55.3 µM (inactive) |  | 53.2 µM (inactive) | 28.1 µM (inactive) |  | 37.7 µM (inactive)
COC(=O)C#CC1(O)C=CC(=O)C=C1 | 1.01 µM (active) | 34 µM (inactive) | 0.889 µM (active) | 4.72 µM (inactive) | 2.79 µM (inactive) | 0.275 µM (active) | 1.57 µM (inactive) | 8.69 µM (inactive) | 1.15 µM (inactive) | 3.9 µM (inactive) | 0.248 µM | 0.508 µM (active) | 0.175 µM (active) | 1.18 µM (inactive) | 0.664 µM (active) | 1.12 µM (active) | 0.203 µM (active) | 2 µM (inactive) | 0.0519 µM (active) | 
COC(=O)c1cc(/C=C2\Cc3cc4c(cc3C2=O)CCC4)cc2c1CCC2 | > 100 µM (inactive) | > 100 µM (inactive) | > 100 µM (inactive) | > 100 µM (inactive) | > 100 µM (inactive) | > 100 µM (inactive) | > 100 µM (inactive) | > 100 µM (inactive) | > 100 µM (inactive) | > 100 µM (inactive) | > 100 µM | > 100 µM (inactive) | > 100 µM (inactive) | > 100 µM (inactive) | > 100 µM (inactive) | > 100 µM (inactive) | > 100 µM (inactive) | > 100 µM (inactive) | > 100 µM (inactive) | 
Nc1nc(Cl)c2ncn(Cc3ccccc3CCl)c2n1 | 8.18 µM (inactive) | 20.5 µM (inactive) | 15.7 µM (inactive) | 21.6 µM (inactive) | 7.76 µM (inactive) | 3.92 µM (inactive) | 3.03 µM (inactive) | 7.4 µM (inactive) | 13.1 µM (inactive) | 8.13 µM (inactive) | 2.69 µM | 6.34 µM (inactive) | 2.98 µM (inactive) | 17.7 µM (inactive) | 4.71 µM (inactive) | 18 µM (inactive) | 3.86 µM (inactive) | 3.36 µM (inactive) | 3.34 µM (inactive) | 
CC(=O)NC1C(OCc2ccccc2)OC(CO)C(O)C1OCC(=O)N[C@@H](C)C(=O)N[C@H](CCC(=O)NCCCCNc1c2ccccc2nc2cccc([N+](=O)[O-])c12)C(N)=O (stereo not given in full) | 2.74 µM (inactive) | 2.16 µM (inactive) | 2.43 µM (inactive) | 3.69 µM (inactive) | 3.1 µM (inactive) | 2.39 µM (inactive) | 0.984 µM (active) | 3.88 µM (inactive) | 2.13 µM (inactive) | 1.79 µM (inactive) | 1.97 µM | 0.804 µM (active) | 0.134 µM (active) | 1.47 µM (inactive) | 2.58 µM (inactive) | 0.731 µM (active) | 1.55 µM (inactive) | 1.34 µM (inactive) | 1.07 µM (active) | 
